Laboratory results from patent US20070178152A1, “Carboxyalkylcellulose esters for administration of poorly soluble pharmaceutically active agents” (priority 2005, published 2007).
Where “and” joins values, the source holds several entries; their conditions need not be identical. Identical values can stand only once. Blank lines part the entries; values can stand above or below the compound they belong to.

How the values were obtained:
[1] = Determination of % crystallinity by X-ray; assay type: physicochemical
Description: Determination of % Crystallinity by X-ray.
All samples were run on a Scintag PAD V diffractometer using Cu K-alpha X-ray.
For each polymer or drug used in this study a neat sample was obtained. A known weight of each species was mixed with a know weight of corundum, Al2O3, diffraction standard. Each mixture was pelletized with a hydraulic press and the XRD pattern of the pellet was measured from 5 to 45 degree scattering angle. A diffraction response factor, R, was calculated for each species according to: R=wc/ws*ls/lc where wc id the weight fraction of corundum, ws is the weight fraction of the species of interest, lc is the net intensity of the major diffraction line of corrundum and is the net intensity of the major diffraction line of the drug or in the case of the polymers, the net intensity of the maximum of the amorphous scattering curve.
Samples were pelletized with a hydraulic press and the XRD pattern of the pellet was measured from 5 to 45 degree scattering angle. The net intensity of the maximum of the amorphous scatter from the polymer, lp, and the net intensity of the major diffraction line of the drug, ld, were determined from the resulting scattering curve. The wt % crystalline drug was calculated from: % crystalline drug=(ld/Rd)/(ld/Rd+lp/Rp)×100 where Rd is the response factor for the drug and Rp is the response factor for the polymer.

[2] = Dissolution of carbamazepine and carbamazepine solid dispersions in SIFsp, pH 6.8; assay type: physicochemical; conditions: for % Drug Released / Total Drug Released: SIFsp pH 6.8, gelatin capsule; for Average % Released: carbamazepine
Description: All dissolution studies were performed on a Varian VK7025 Dissolution Apparatus equipped with a Varian VK8000 Fraction Collector
HPLC Methods for Evaluating Dissolution Aliquots:
Determination of Weight % Phenytoin, Carbamazepine, Glyburide, or Griseofulvin.
Mobile Phase: 55% acetonitrile/45% ammonium acetate buffer (2.6 g NH4OAc/L H2O with pH adjusted to pH˜5.25 with glacial acetic acid)
Column: Agilent Eclipse XDB-C8, 4.6 mm×150 mm×5 μm
Detection: UV 254 nm (UV 214 nm can also be used for phenytoin or carbamazepine, UV 291 nm can also be used for griseofulvin); typically five signals were selected from UV 214 nm, 222 nm, 254 nm, 287 nm, 291 nm, and/or 325 nm were collected for each sample.
Simulated Intestinal Fluid, without pancreatin, pH 6.8 (SIFsp, pH 6.8)—Added monobasic potassium phosphate (KH2PO4, 34 g) to a 4000-mL beaker. Added deionized/polished water (2000 mL) and mixed using a magnetic stir bar until the KH2PO4 is completely dissolved. Added 0.2 N sodium hydroxide (NaOH, 590 mL) and stirred. The pH was adjusted to pH 6.8±0.1 using 0.2 N NaOH. The sample was diluted with deionized/polished water to a final volume of 5000 mL.
The SIFsp media was heated to ˜45° C. in four 2000-mL Kimax bottles in an oven. The sample was degassed according to USP protocol by filtering through a 0.45 μm membrane filter (Pall, Supor-450, 0.45 μm, 90 mm, part # 60200, Lot # 43214) and stirring under vacuum for 5 minutes.
Dissolution Conditions #1.
Dissolution Conditions #2.
These Examples describe the dissolution of carbamazepine and carbamazepine solid dispersions by evaluating the samples described in Examples 91-99. SlFsp, pH 6.8 media preparation was described in the Materials and Methods section.
Samples were transferred into gelatin capsules (Capsugel, size OCS, Lot #624282) using a manual single capsule filler. The weight of each capsule and the amount of sample added are found in Table 17 (Capsule Description).

wt % Crystal (X-ray) ([1]; phenytoin/polymer solid dispersions and physical blends (Table 6)): 100 wt %
SMILES: O=C1NC(=O)C(c2ccccc2)(c2ccccc2)N1 [Example 78, Phenytoin]

% Drug Released ([2]; 20 min): 33.9384% and 38.8298%
Total Drug Released ([2]; 20 min): 9.4293 mg and 10.5423 mg
% Drug Released ([2]; 30 min): 44.1249% and 55.2412%
Total Drug Released ([2]; 30 min): 12.2594 mg and 14.9980 mg
% Drug Released ([2]; 60 min): 59.6056% and 68.7527%
Total Drug Released ([2]; 60 min): 16.5605 mg and 18.6664 mg
% Drug Released ([2]; 120 min): 68.4090% and 79.5856%
Total Drug Released ([2]; 120 min): 19.0064 mg and 21.6075 mg
% Drug Released ([2]; 180 min): 67.5738% and 72.0943%
Total Drug Released ([2]; 180 min): 18.7744 mg and 19.5736 mg
% Drug Released ([2]; 240 min): 67.7652% and 72.6520%
Total Drug Released ([2]; 240 min): 18.8275 mg and 19.7250 mg
% Drug Released ([2]; 300 min): 67.6548% and 72.9162%
Total Drug Released ([2]; 300 min): 18.7969 mg and 19.7968 mg
% Drug Released ([2]; 360 min): 72.4305% and 71.9068%
Total Drug Released ([2]; 360 min): 20.1237 mg and 19.5227 mg
% Drug Released ([2]; 450 min): 67.4606% and 70.7122%
Total Drug Released ([2]; 450 min): 18.7429 mg and 19.1984 mg
Average % Released ([2]; SIFsp pH 6.8, 10 min): 6.7739%
Average % Released ([2]; SIFsp pH 6.8, 20 min): 36.3841%
Average % Released ([2]; SIFsp pH 6.8, 30 min): 49.6830%
Average % Released ([2]; SIFsp pH 6.8, 60 min): 64.1792%
Average % Released ([2]; SIFsp pH 6.8, 120 min): 73.9973%
Average % Released ([2]; SIFsp pH 6.8, 180 min): 69.8341%
Average % Released ([2]; SIFsp pH 6.8, 240 min): 70.2086%
Average % Released ([2]; SIFsp pH 6.8, 300 min): 70.2855%
Average % Released ([2]; SIFsp pH 6.8, 360 min): 72.1686%
Average % Released ([2]; SIFsp pH 6.8, 450 min): 69.0864%
wt % Crystal (X-ray) ([1]; carbamazepine/CMCAB solid dispersions and physical blends (Table 8)): 100 wt %
SMILES: NC(=O)N1c2ccccc2C=Cc2ccccc21 [Example 95, Carbamazepine]

wt % Crystal (X-ray) ([1]; glyburide/CMCAB solid dispersions and physical blends (Table 10)): 100 wt %
SMILES: COc1ccc(Cl)cc1C(=O)NCCc1ccc(S(=O)(=O)NC(=O)NC2CCCCC2)cc1 [Example 113, Glyburide]
